Values joined by “and” are separate entries in the source; they are usually repeats but may differ in a detail not shown here. Equal entries are not always repeated. Structures can show the parent of a compound that is named as a salt. Where two headings read alike, the source gives them in different places.
Test system: root knot nematodes (Meloidogyne incognita)
Assay: systemic control of root knot nematodes on tomato roots by foliar application
Format: in vivo
Settings: for pest or weed control at 100 ppm / pest or weed control at 500 ppm: Meloidogyne incognita, 504 h, read-out: percent control of root disease relative to non-treated plants
Protocol: Compounds of the present invention, prepared as described above, were tested for effectiveness in controlling root knot nematodes (Meloidogyne incognita) on tomato roots when applied to foliage of young plants.
Tomato plants, cv `Rutgers`, were grown one per pot in six an square plastic pots containing a mixture of equal parts fine sand, coarse sand, silt loam soil, and commercial potting medium. A 10,000 ppm stock solution of each test compound was prepared in either water or acetone. Samples were then diluted with additional water to give final test concentrations of 500 and 100 ppm. Tween®20 was added for a final concentration of 0.5% v/v in all test samples.
When the tomato plants were 18-21 days old the test solutions were sprayed onto the leaves and stems. Each rate of each test compound was applied to three tomato plants using four ml of spray solution per plant. One day after spraying the plants were inoculated with mature root knot nematode eggs containing J1 larvae, with 8,000 eggs per plant applied in 5 ml of water on soil at the stem base. Plants then were incubated in a growth chamber at 27° C. with all replicate pots randomized throughout the chamber. During the two weeks immediately following application of the test compounds all plants received sub-irrigation and the foliage was kept dry.
After three weeks incubation the plant roots were washed and nematode disease severity was assessed. Each root system was rated individually and a visual estimate of the percent of the root system afflicted with nematode galling was determined. Values of 0, 1, 5, 10, 20, 30, 40, 50, 60, 70, 80, or 100 percent galled roots were assigned to each plant. […] For each treatment (compound & rate) a standard deviation was calculated for the mean of the three replicate plants. Percent disease control relative to non-treated plants also was calculated.

[1] = 100 ppm foliar spray, tomato cv Rutgers, 3 weeks, mean of three plants, non-treated generally 60% or greater
[2] = 500 ppm foliar spray, tomato cv Rutgers, 3 weeks, mean of three plants, non-treated generally 60% or greater
[3] = 100 ppm foliar spray, tomato cv Rutgers, 3 weeks, * = no biological activity at the rate tested
[4] = 500 ppm foliar spray, tomato cv Rutgers, 3 weeks, * = no biological activity at the rate tested

Q: Which results are given for `N#CCNC(=O)CC(F)=C(F)F` [Example 2, 3-BUTENAMIDE, N-CYANOMETHYL)-3,4,4- TRIFLUORO-]?
A: Mean percent root disease (galled) [1]: 73%; Mean percent root disease (galled) [2]: 67%; pest or weed control at 100 ppm [3]: 8%; pest or weed control at 500 ppm [4]: 17%

Q: For `CONC(=O)CC(F)=C(F)F` [Example 3, 3-BUTENAMIDE, 3,4,4-TRIFLUORO-N-METHOXY-], which “Mean percent root disease (galled)” value [1] is on record?
A: 77%

Q: And the “Mean percent root disease (galled)” value [2]?
A: 70%

Q: And the pest or weed control at 100 ppm [3]?
A: 12%

Q: What about the pest or weed control at 500 ppm [4] of the same compound?
A: 20%

Q: How did the “Mean percent root disease (galled)” value [1] turn out when `NC(=O)NNC(=O)CC(F)=C(F)F` [Example 4, 3-BUTENOIC ACID, 3,4,4-TRIFLUORO-, 2-(AMINOCARBONYL)HYDRAZIDE] was run?
A: 80%

Q: And the “Mean percent root disease (galled)” value [2]?
A: 73%

Q: What about the pest or weed control at 100 ppm [3] of the same compound?
A: 0%

Q: What about the pest or weed control at 500 ppm [4] of the same compound?
A: 8%

Q: `COc1cc(OC)nc(NC(=O)CC(F)=C(F)F)n1` [Example 5, 3-BUTENAMIDE, N-(4,6-DIMETHOXY-2-PYRIMIDINYL)- 3,4,4-TRIFLUORO-] was tested. Which “Mean percent root disease (galled)” value [1] did it give?
A: 90%

Q: And the “Mean percent root disease (galled)” value [2]?
A: 30%

Q: And the pest or weed control at 100 ppm [3]?
A: -3%

Q: What about the pest or weed control at 500 ppm [4] of the same compound?
A: 66%

Q: `C[Si](C)(C)CN(Cc1ccccc1)C(=O)CC(F)=C(F)F` [Example 6, 3-BUTENAMIDE, 3,4,4-TRIFLUORO-N-(PHENYLMETHYL)- N-[(TRIMETHYLSILYL) METHYL]-] was tested. Which pest or weed control at 100 ppm (foliar) did it give?
A: 2%

Q: What about the pest or weed control at 500 ppm (foliar) of the same compound?
A: 0%

Q: What about the “Mean percent root disease (galled)” value (in vivo) of the same compound?
A: 87% and 85%

Q: How did the “Mean percent root disease (galled)” value [1] turn out when `O=C(CC(F)=C(F)F)Nc1ccc(S(=O)(=O)O)cc1` [Example 7, BENZENESULFONIC ACID, 4-[(3,4,4-TRIFLUORO-1-OXO-3- BUTENYL)AMINO]-] was run?
A: 23%

Q: And the “Mean percent root disease (galled)” value [2]?
A: 17%

Q: What about the pest or weed control at 100 ppm [3] of the same compound?
A: 56%

Q: What about the pest or weed control at 500 ppm [4] of the same compound?
A: 69%

Q: Which “Mean percent root disease (galled)” value [1] does the source give for `CS(=O)(=O)NC(=O)CC(F)=C(F)F` [Example 8, 3-BUTENAMIDE, 3,4,4-TRIFLUORO-N- (METHYLSULFONYL)-] here?
A: 80%

Q: What about the “Mean percent root disease (galled)” value [2] of the same compound?
A: 5%

Q: And the pest or weed control at 100 ppm [3]?
A: 0%

Q: And the pest or weed control at 500 ppm [4]?
A: 94%

Q: For `O=C(CC(F)=C(F)F)NS(=O)(=O)C(F)(F)F` [Example 9, 3-BUTENAMIDE, 3,4,4-TRIFLUORO-, N-[(TRIFLUOROMETHYL)SULFONYL]-], which “Mean percent root disease (galled)” value [1] is on record?
A: 80%

Q: And the “Mean percent root disease (galled)” value [2]?
A: 5%

Q: What about the pest or weed control at 100 ppm [3] of the same compound?
A: 0%

Q: And the pest or weed control at 500 ppm [4]?
A: 94%

Q: How did the “Mean percent root disease (galled)” value [1] turn out when `O=C(CC(F)=C(F)F)NCS(=O)(=O)O` [Example 10, METHANESULFONIC ACID, [(3,4,4-TRIFLUORO-1-OXO-3- BUTENYL)AMINO]-] was run?
A: 20%

Q: And the “Mean percent root disease (galled)” value [2]?
A: 27%

Q: What about the pest or weed control at 100 ppm [3] of the same compound?
A: 62%

Q: What about the pest or weed control at 500 ppm [4] of the same compound?
A: 50%

Q: For `O=C(CC(F)=C(F)F)n1cncn1` [Example 11, 1H-1,2,4-TRIAZOLE, 1-(3,4,4-TRIFLUORO-1-OXO-3- BUTENYL)-], which “Mean percent root disease (galled)” value [1] is on record?
A: 80%

Q: And the “Mean percent root disease (galled)” value [2]?
A: 7%

Q: What about the pest or weed control at 100 ppm [3] of the same compound?
A: 0%

Q: What about the pest or weed control at 500 ppm [4] of the same compound?
A: 92%

Q: Which results are given for `O=C(CC(F)=C(F)F)n1cccn1` [Example 12, 1H-PYRAZOLE, 1-(3,4,4-TRIFLUORO-1-OXO-3- BUTENYL)-]?
A: Mean percent root disease (galled) [1]: 80%; Mean percent root disease (galled) [2]: 43%; pest or weed control at 100 ppm [3]: 0%; pest or weed control at 500 ppm [4]: 46%

Q: With `FC(F)=C(F)CC(=S)Nc1ccccc1` [Example 13, 3-BUTENETHIOAMIDE, 3,4,4-TRIFLUORO-N-PHENYL-] as the compound, how does the “Mean percent root disease (galled)” value [1] read?
A: 40%

Q: And the “Mean percent root disease (galled)” value [2]?
A: 27%

Q: What about the pest or weed control at 100 ppm [3] of the same compound?
A: 25%

Q: And the pest or weed control at 500 ppm [4]?
A: 50%

Q: Which pest or weed control at 100 ppm (foliar) does the source give for `C[Si](C)(C)CCCOC(=O)CC(F)=C(F)F` [Example 14, 3-BUTENOIC ACID, 3,4,4-TRIFLUORO-, 3-(TRIMETHYLSILYL)PROPYL ESTER] here?
A: 4%

Q: And the pest or weed control at 500 ppm (foliar)?
A: 8%

Q: And the “Mean percent root disease (galled)” value (in vivo)?
A: 80% and 83%

Q: How did the pest or weed control at 100 ppm (foliar) turn out when `C[Si](C)(C)CCSC(=O)CC(F)=C(F)F` [Example 15, 3-BU[…], 3,4,4-TRIFLUORO-, S-[2-(TRIMETHYLSILYL)ETHYL] ESTER] was run?
A: 2%

Q: And the pest or weed control at 500 ppm (foliar)?
A: -3%

Q: What about the “Mean percent root disease (galled)” value (in vivo) of the same compound?
A: 90% and 85%

Q: Which “Mean percent root disease (galled)” value [1] does the source give for `O=C(CC(F)=C(F)F)Sc1ncccn1` [Example 16, 3,-BUTENETHIOIC ACID, 3,4,4-TRIFLUORO-, S-2-PYRIMIDINYL ESTER] here?
A: 80%

Q: And the “Mean percent root disease (galled)” value [2]?
A: 50%

Q: And the pest or weed control at 100 ppm [3]?
A: 0%

Q: What about the pest or weed control at 500 ppm [4] of the same compound?
A: 38%

Q: What does the source list for `O=P(O)(O)CC(F)=C(F)F` [Example 18, PHOSPHONIC ACID, (2,3,3-TRIFLUORO-2-PROPENYL)-]?
A: pest or weed control at 100 ppm (foliar): -5%; pest or weed control at 500 ppm (foliar): 0%; Mean percent root disease (galled) (in vivo): 73% and 77%

Q: With `O=P(O)(CC(F)=C(F)F)c1ccccc1` [Example 19, PHOSPHINIC ACID, PHENYL(2,3,3-TRIFLUORO-2- PROPENYL)-, SODIUM SALT] as the compound, how does the “Mean percent root disease (galled)” value [1] read?
A: 73%

Q: What about the “Mean percent root disease (galled)” value [2] of the same compound?
A: 73%

Q: And the pest or weed control at 100 ppm [3]?
A: 0%

Q: What about the pest or weed control at 500 ppm [4] of the same compound?
A: 0%

Q: Which “Mean percent root disease (galled)” value [1] does the source give for `Cc1ccccc1C(=O)CC(F)=C(F)F` [Example 20, 3-BUTEN-1-ONE, 3,4,4-TRIFLUORO-1-(2-METHYL PHENYL)-] here?
A: 53%

Q: And the “Mean percent root disease (galled)” value [2]?
A: 47%

Q: What about the pest or weed control at 100 ppm [3] of the same compound?
A: 0%

Q: And the pest or weed control at 500 ppm [4]?
A: 12%
